Laboratory results from patent publication US20120201749A1, “NP-1 Antagonists and Their Therapeutic Use” (priority 2009, published 2012).

Molecular target: NP-1 (Homo sapiens, UniProt O14786)
Test: Biotinylated-VEGF-A165 (bt-VEGF-A165) binding to NP-1
Conditions: for inhibition at 3 µM: read-out: Screen (% inhibition at 3 μM); for inhibition at 30 µM: read-out: Screen (% inhibition at 30 μM)
Description: Human prostate carcinoma DU145 cells were cultured in growth medium (RPMI 1640 containing 10% FBS and L-glutamine). DU145 cells were seeded at the density of 2×10^4 cells per well (96-well plates) in 0.1 ml growth medium and transfected with adenovirus vectors containing the full-length open-reading frame of human NP-1. The Ad.NP-1-transfected cells grew for 2 days prior to a binding assay.
Confluent Ad.NP-1-transfected cells in 96-well plates were washed twice with phosphate-buffered saline (PBS). The various concentrations of compounds diluted in binding medium (Dulbecco's modified Eagle's medium, 25 mM HEPES pH 7.3 containing 0.1% BSA) were added, followed by addition of 2 nM of bt-VEGF-A165. After 2 h of incubation at room temperature, the medium was aspirated and washed three times with PBS. The bound bt-VEGF-A165 to NP-1 was detected by streptavidin-horseradish peroxidase conjugates and the enzyme substrate, and measured using a Tecan Genios plate reader at A450 nm with a reference wavelength at A595 nm. Non-specific binding was determined in the presence of 100-fold excess unlabelled VEGF-A165.
The 96-well plates were pre-coated with NP1 protein at 3 μg/ml overnight at 4° C. On the following day, the plates were treated with blocking buffer (PBS containing 1% BSA) and washed three times with wash buffer (PBS containing 0.1% Tween-20). The various concentrations of compounds diluted in PBS containing 1% DMSO were added, followed by addition of 0.25 nM of bt-VEGF-A165. After 2 h of incubation at room temperature, the plates were washed three times with wash buffer. The bound bt-VEGF-A165 to NP-1 was detected by streptavidin-horseradish peroxidase conjugates and the enzyme substrate, and measured using a Tecan Genios plate reader at A450 nm with a reference wavelength at A595 nm. Nonspecific binding was determined in the absence of NP-1 coated wells of the plates.

Chain of NP-1 (O14786 22-923): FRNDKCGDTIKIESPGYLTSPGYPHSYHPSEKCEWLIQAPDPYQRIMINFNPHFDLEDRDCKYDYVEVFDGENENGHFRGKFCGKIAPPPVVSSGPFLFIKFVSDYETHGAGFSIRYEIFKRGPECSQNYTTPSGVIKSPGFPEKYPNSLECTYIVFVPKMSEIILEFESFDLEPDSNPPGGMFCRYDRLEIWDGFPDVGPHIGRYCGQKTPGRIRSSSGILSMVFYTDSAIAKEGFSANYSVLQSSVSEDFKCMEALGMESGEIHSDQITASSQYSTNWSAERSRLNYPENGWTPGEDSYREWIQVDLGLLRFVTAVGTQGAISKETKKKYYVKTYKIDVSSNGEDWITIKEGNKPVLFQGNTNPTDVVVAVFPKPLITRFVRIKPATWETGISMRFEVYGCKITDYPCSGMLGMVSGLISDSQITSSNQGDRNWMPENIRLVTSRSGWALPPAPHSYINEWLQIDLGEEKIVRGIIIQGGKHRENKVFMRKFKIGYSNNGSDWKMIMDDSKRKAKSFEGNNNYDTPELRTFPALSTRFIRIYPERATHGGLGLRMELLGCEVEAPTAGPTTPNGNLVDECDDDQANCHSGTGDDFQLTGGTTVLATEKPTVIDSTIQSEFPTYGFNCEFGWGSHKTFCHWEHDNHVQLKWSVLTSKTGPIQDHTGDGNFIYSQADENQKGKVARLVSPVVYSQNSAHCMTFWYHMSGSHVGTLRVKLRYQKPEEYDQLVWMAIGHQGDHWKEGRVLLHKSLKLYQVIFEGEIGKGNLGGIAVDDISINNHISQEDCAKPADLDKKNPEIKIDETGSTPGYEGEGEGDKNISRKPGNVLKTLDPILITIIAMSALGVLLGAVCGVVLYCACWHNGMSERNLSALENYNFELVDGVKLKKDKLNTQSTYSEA

Structure (SMILES) | IC50 | inhibition at 3 µM (3 μM compound) | inhibition at 30 µM (30 μM compound) | Screen (% inhibition at 3 μM) (3 μM compound, 3 µM) | Screen (% inhibition at 30 μM) (30 μM compound, 30 µM)
N=C(N)NCCC[C@H](NC(=O)c1sccc1NS(=O)(=O)c1cc(-c2ccccc2CN2CCNCC2)cc2c1OCC2)C(=O)O [Compound 20, (S)-5-Guanidino-2-({3-[5-(2-piperazin-1-ylmethyl-phenyl)-2,3-dihydro-benzofuran-7-sulfonylamino]-thiophene-2-carbonyl}-amino)-pentanoic acid] | 2000 nM | 82% | 100% | – | –
N=C(N)NCCC[C@H](NC(=O)c1sccc1NS(=O)(=O)c1cc(-c2ccccc2CN2CCC(N)CC2)cc2c1OCC2)C(=O)O [Compound 21, (S)-2-[(3-{5-[2-(4-Amino-piperidin-1-ylmethyl)-phenyl]-2,3-dihydro-benzofuran-7-sulfonylamino}-thiophene-2-carbonyl)-amino]-5-guanidino-pentanoic acid] | – | 73% | – | – | –
N=C(N)NCCC[C@H](NC(=O)c1sccc1NS(=O)(=O)c1cc(-c2cccc(CN3CCC(N4CCOCC4)CC3)c2)cc2c1OCC2)C(=O)O [Compound 22, (S)-5-Guanidino-2-[(3-{5-[3-(4-morpholin-4-yl-piperidin-1-ylmethyl)-phenyl]-2,3-dihydro-benzofuran-7-sulfonylamino}-thiophene-2-carbonyl)-amino]-pentanoic acid] | – | 70% | 98% | – | –
N=C(N)NCCC[C@H](NC(=O)c1sccc1NS(=O)(=O)c1cc(-c2ccccc2CN2CCC(N3CCOCC3)CC2)cc2c1OCC2)C(=O)O [Compound 25, (S)-5-Guanidino-2-[(3-{5-[2-(4-morpholin-4-yl-piperidin-1-ylmethyl)-phenyl]-2,3-dihydro-benzofuran-7-sulfonylamino}-thiophene-2-carbonyl)-amino]-pentanoic acid] | 635 nM | 83% | 100% | – | –
N=C(N)NCCC[C@H](NC(=O)c1sccc1NS(=O)(=O)c1cc(-c2cccc(CN3CCN(c4ccccn4)CC3)c2)cc2c1OCC2)C(=O)O [Compound 27, (S)-5-Guanidino-2-[(3-{5-[3-(4-pyridin-2-yl-piperazin-1-ylmethyl)-phenyl]-2,3-dihydro-benzofuran-7-sulfonylamino}-thiophene-2-carbonyl)-amino]-pentanoic acid] | 625 nM | 88% | 97% | – | –
N=C(N)NCCC[C@H](NC(=O)c1sccc1NS(=O)(=O)c1cc(-c2cccc(CN3CCN(Cc4ccccn4)CC3)c2)cc2c1OCC2)C(=O)O [Compound 29, (S)-5-Guanidino-2-[(3-{5-[3-(4-pyridin-2-ylmethyl-piperazin-1-ylmethyl)-phenyl]-2,3-dihydro-benzofuran-7-sulfonylamino}-thiophene-2-carbonyl)-amino]-pentanoic acid] | 686 nM | 79% | 100% | – | –
N=C(N)NCCC[C@H](NC(=O)c1sccc1NS(=O)(=O)c1cc(-c2cccc(CN3CCN(Cc4ccncc4)CC3)c2)cc2c1OCC2)C(=O)O [Compound 30, (S)-5-Guanidino-2-[(3-{5-[3-(4-pyridin-4-ylmethyl-piperazin-1-ylmethyl)-phenyl]-2,3-dihydro-benzofuran-7-sulfonylamino}-thiophene-2-carbonyl)-amino]-pentanoic acid] | 691 nM | 80% | 100% | – | –
N=C(N)NCCC[C@H](NC(=O)c1sccc1NS(=O)(=O)c1cc(-c2cccc(CN3CCC(N4CCOCC4)CC3)c2)cc2c1OCC2)C(=O)O [Compound 38, (S)-5-Guanidino-2-[(3-{5-[3-(4-morpholin-4-yl-piperidin-1-ylmethyl)-phenyl]-2,3-dihydro-benzofuran-7-sulfonylamino}-thiophene-2-carbonyl)-amino]-pentanoic acid] | 295 nM | – | – | 68% | 93%

The remaining lines, values ahead:

IC50 | inhibition at 3 µM (3 μM compound) | inhibition at 30 µM (30 μM compound) | Screen (% inhibition at 3 μM) (3 μM compound, 3 µM) | Screen (% inhibition at 30 μM) (30 μM compound, 30 µM) | Structure (SMILES)
– | 58% | 97% | – | – | Cn1cncc1CNCc1ccccc1-c1cc2c(c(S(=O)(=O)Nc3ccsc3C(=O)N[C@@H](CCCNC(=N)N)C(=O)O)c1)OCC2 [Compound 23, (S)-5-Guanidino-2-({3-[5-(2-{[(3-methyl-3H-imidazol-4-ylmethyl)-amino]-methyl}-phenyl)-2,3-dihydro-benzofuran-7-sulfonylamino]-thiophene-2-carbonyl}-amino)-pentanoic acid]
– | 67% | 100% | – | – | N=C(N)NCCC[C@H](NC(=O)c1sccc1NS(=O)(=O)c1cc(-c2ccccc2CNCc2ncc[nH]2)cc2c1OCC2)C(=O)O [Compound 24, (S)-5-Guanidino-2-({3-[5-(2-{[(1H-imidazol-2-ylmethyl)-amino]-methyl}-phenyl)-2,3-dihydro-benzofuran-7-sulfonylamino]-thiophene-2-carbonyl}-amino)-pentanoic acid]
– | 55% | 100% | – | – | Cc1cc(CNCc2ccccc2-c2cc3c(c(S(=O)(=O)Nc4ccsc4C(=O)N[C@@H](CCCNC(=N)N)C(=O)O)c2)OCC3)no1 [Compound 26, (S)-5-Guanidino-2-({3-[5-(2-{[(5-methyl-isoxazol-3-ylmethyl)-amino]-methyl}-phenyl)-2,3-dihydro-benzofuran-7-sulfonylamino]-thiophene-2-carbonyl}-amino)-pentanoic acid]
216 nM | 96% | 100% | – | – | N=C(N)NCCC[C@H](NC(=O)c1sccc1NS(=O)(=O)c1cc(-c2cccc(CN3CCN(c4ccncc4)CC3)c2)cc2c1OCC2)C(=O)O [Compound 28, (S)-5-Guanidino-2-[(3-{5-[3-(4-pyridin-4-yl-piperazin-1-ylmethyl)-phenyl]-2,3-dihydro-benzofuran-7-sulfonylamino}-thiophene-2-carbonyl)-amino]-pentanoic acid]
105 nM | 86% | 99% | – | – | N=C(N)NCCC[C@H](NC(=O)c1sccc1NS(=O)(=O)c1cc(-c2cccc(CNCc3ccccn3)c2)cc2c1OCC2)C(=O)O [Compound 31, (S)-5-Guanidino-2-({3-[5-(3-{[(pyridin-2-ylmethyl)-amino]-methyl}-phenyl)-2,3-dihydro-benzofuran-7-sulfonylamino]-thiophene-2-carbonyl}-amino)-pentanoic acid]
– | 75% | – | – | – | N=C(N)NCCC[C@H](NC(=O)c1sccc1NS(=O)(=O)c1cc(-c2cccc(CNCc3ccncc3)c2)cc2c1OCC2)C(=O)O [Compound 32, (S)-5-Guanidino-2-({3-[5-(3-{[(pyridin-4-ylmethyl)-amino]-methyl}-phenyl)-2,3-dihydro-benzofuran-7-sulfonylamino]-thiophene-2-carbonyl}-amino)-pentanoic acid]
365 nM | 81% | 100% | – | – | N=C(N)NCCC[C@H](NC(=O)c1sccc1NS(=O)(=O)c1cc(-c2cccc(CN3CCNCC3)c2)cc2c1OCC2)C(=O)O [Compound 33, (S)-5-Guanidino-2-({3-[5-(3-piperazin-1-ylmethyl-phenyl)-2,3-dihydro-benzofuran-7-sulfonylamino]-thiophene-2-carbonyl}-amino)-pentanoic acid]
– | 50% | 94% | – | – | N=C(N)NCCC[C@H](NC(=O)c1sccc1NS(=O)(=O)c1cc(-c2cccc(CN3CCC(N)CC3)c2)cc2c1OCC2)C(=O)O [Compound 34, (S)-2-[(3-{5-[3-(4-Amino-piperidin-1-ylmethyl)-phenyl]-2,3-dihydro-benzofuran-7-sulfonylamino}-thiophene-2-carbonyl)-amino]-5-guanidino-pentanoic acid]
– | 71% | 96% | – | – | N=C(N)NCCC[C@H](NC(=O)c1sccc1NS(=O)(=O)c1cc(-c2cccc(CNCCO)c2)cc2c1OCC2)C(=O)O [Compound 35, (S)-5-Guanidino-2-{[3-(5-{3-[(2-hydroxy-ethylamino)-methyl]-phenyl}-2,3-dihydro-benzofuran-7-sulfonylamino)-thiophene-2-carbonyl]-amino}-pentanoic acid]
320 nM | 84% | 98% | – | – | Cn1cncc1CNCc1cccc(-c2cc3c(c(S(=O)(=O)Nc4ccsc4C(=O)N[C@@H](CCCNC(=N)N)C(=O)O)c2)OCC3)c1 [Compound 36, (S)-5-Guranidino-2-({3-[5-(3-{[(3-methyl-3H-imidazol-4-ylmethyl)-amino]-methyl}-phenyl)-2,3-dihydro-benzofuran-7-sulfonylamino]-thiophene-2-carbonyl}-amino)-pentanoic acid]
637 nM | 68% | 90% | – | – | N=C(N)NCCC[C@H](NC(=O)c1sccc1NS(=O)(=O)c1cc(-c2cccc(CNCc3ncc[nH]3)c2)cc2c1OCC2)C(=O)O [Compound 37]
